Reference: ChEMBL document CHEMBL1201862, “PubChem BioAssay data set” (2004)
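Assay format: 96-well plates, 48-hour exposure. Here, GI50 denotes the concentration required for 50% inhibition of growth.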 Calls of active or inactive are those of the source. Cut-off read from the data, not from the text of the source: active = GI50 up to about 1.1 µM and inactive = higher.

Assays:
Assay in all cases: growth of human tumour cells (NCI), 48 h
M19-MEL = tested on: M19-MEL
DLD-1 = tested on: DLD-1
RXF 631 = tested on: RXF 631
SNB-78 = tested on: SNB-78
DMS-273 = tested on: DMS-273
HOP-18 = tested on: HOP-18
LXFL 529 = tested on: LXFL 529
XF498 = tested on: XF498

Row | SMILES | GI50 (M19-MEL) | GI50 (DLD-1) | GI50 (RXF 631) | GI50 (SNB-78) | GI50 (DMS-273) | GI50 (HOP-18) | GI50 (LXFL 529) | GI50 (XF498)
1 | CCCCCCCCCCCCC(=O)CCCCC(=O)O | 18.2 µM (inactive) | 17.9 µM (inactive) | 18.7 µM (inactive) | 72.6 µM (inactive) | 33.4 µM (inactive) | 16 µM (inactive) | 18 µM (inactive) | –
2 | O=C1CCC2(c3ccc(Cl)cc3)Nc3ccccc3N12 (centres undefined) | 69 µM (inactive) | 71 µM (inactive) | > 100 µM (inactive) | > 100 µM (inactive) | – | 50.2 µM (inactive) | 47 µM (inactive) | 77.1 µM (inactive)
3 | N#CCC(=O)N/N=C1/C(=O)N(c2cc(Cl)ccc2Cl)C(=O)C(=O)C1c1nc2ccccc2s1 (centres undefined) | 77.1 µM (inactive) | > 100 µM (inactive) | 55.3 µM (inactive) | > 100 µM (inactive) | > 100 µM (inactive) | 72.9 µM (inactive) | > 100 µM (inactive) | –
4 | COc1cc2c(cc1OC)[C@@H](C(O)c1ccccc1)NCC2 (some centres undefined) | > 100 µM (inactive) | > 100 µM (inactive) | > 100 µM (inactive) | > 100 µM (inactive) | > 100 µM (inactive) | – | > 100 µM (inactive) | > 100 µM (inactive)
5 | COc1ccc(-c2onc(-c3c(C)cc(C)cc3C)c2C2=NCCN2)cc1 | 86.5 µM (inactive) | 74 µM (inactive) | 70.6 µM (inactive) | 35.2 µM (inactive) | – | 10.9 µM (inactive) | > 100 µM (inactive) | –
6 | COc1ccc(C(=O)Cc2cc(OC)ccc2OC)cc1 | > 100 µM (inactive) | > 100 µM (inactive) | > 100 µM (inactive) | 42.4 µM (inactive) | > 100 µM (inactive) | > 100 µM (inactive) | > 100 µM (inactive) | –
7 | Cc1ccc(C2CC(c3ccc([N+](=O)[O-])cc3)=Nc3ccccc3S2)cc1 (centres undefined) | 18.6 µM (inactive) | 25.5 µM (inactive) | 24.5 µM (inactive) | – | – | 48.4 µM (inactive) | 12.1 µM (inactive) | 19 µM (inactive)
8 | c1ccc(-c2ccnc3c2ccc2c(-c4ccccc4)ccnc23)cc1 | 1.74 µM (inactive) | 2.47 µM (inactive) | 0.604 µM (active) | 5.05 µM (inactive) | 2.56 µM (inactive) | 2.34 µM (inactive) | 0.71 µM (active) | –
